Results as given in patent US20190302114A1, “METHOD FOR DETECTING THE PRESENCE OF MYC[…] IN SAMPLE USING I[…] PHO[…]” (KEI INTERNATIONAL LIMITED, priority 2016, published 2019).

What was measured:
Type in all cases: binding
[1] = tested on: antibodies against mycobacterial material in human serum; experiment: ELISA with antigen immobilised on ELISA plates, rabbit anti-human IgM HRP as secondary antibody; details: for tuberculosis specific binding of antibodies to the immobilised antigen: overall conclusion from TB patient versus healthy samples; for background ELISA signal (absorbance at 450 nm) in healthy persons: serum of healthy persons, 1:20, 'lower' is relative to immobilised mycolic acid
[2] = tested on: antibodies against mycobacterial material in human serum; experiment: ELISA with diacyl glycolipid antigen of formula (XIII) immobilised via the terminal thio group
[3] = tested on: antibodies against mycobacterial material in human serum; experiment: ELISA with antigen immobilised on ELISA plates, rabbit anti-human IgG HRP as secondary antibody
[4] = serum of smear positive TB patients 1-9 (+)

2-palmitoyl-3-hydroxyphthioceranoyl-2′-sulfate-α-α′-D-trehalose [Ac2SGL]
tuberculosis specific binding of antibodies to the immobilised antigen [1]: very high tuberculosis specific binding
background ELISA signal (absorbance at 450 nm) in healthy persons [1]: markedly lower
absorbance signal of samples from smear negative patients versus healthy persons ([1]; serum of smear negative TB patients 11-18 (−)): significantly higher than the signal of the healthy persons
absorbance signal of samples from smear positive patients versus healthy persons [1, 4]: higher than the signal of the healthy persons

C/C(=C\C[n+]1cnc2c(ncn2[C@@H]2O[C@H](CO)C(O)[C@@H]2O)c1N)CC[C@@]1(C)[C@@H]2CCCC(C)(C)C2=CC[C@@H]1C (stereo partly shown) [1-tuberculosinyladenosine]
tuberculosis specific binding of antibodies to the immobilised antigen [1]: very high tuberculosis specific binding
background ELISA signal (absorbance at 450 nm) in healthy persons [1]: markedly lower

CCCCCCCCCCCCCCCCCC[C@H](C)C[C@H](C)[C@@H](O)[C@H](C)C(=O)O[C@@H]1C(OC(=O)CCCCCCCCCCCCCCCS)[C@@H](O[C@H]2OC(CO)[C@@H](O)C(O)[C@H]2O)OC(CO)[C@H]1O (stereo partly shown) [formula (XIII)]
background ELISA signal in healthy persons ([2]; healthy persons (n=4)): markedly lower
tuberculosis specific binding of antibodies to the immobilised antigen ([2]; overall conclusion, most significant in smear negative samples): very high tuberculosis specific binding
absorbance signal of samples from smear negative patients versus healthy persons ([2]; smear negative patients (n=32), very low standard deviation): significantly higher than the signal of the healthy persons
absorbance signal of samples from smear positive patients versus healthy persons ([2]; smear positive patients (n=9), rather high standard deviation): higher than the signal of the healthy persons

CCCCCCCC(C)CCCC(C)CCCC(C)CCCC(C)CCCC(C)CCCOP(=O)(O)O[C@@H]1O[C@H](CO)[C@@H](O)[C@H](O)[C@@H]1O (stereo partly drawn) [β-mannosyl phosphomycoketide]
tuberculosis specific binding of antibodies to the immobilised antigen ([3]; overall conclusion, in particular smear positive samples): very high tuberculosis specific binding
background ELISA signal (absorbance at 450 nm) in healthy persons ([3]; serum of healthy persons, 1:20, 'lower' is relative to immobilised mycolic acid): markedly lower
absorbance signal of samples from smear positive patients versus healthy persons [3, 4]: significantly higher than the signal obtained in the healthy persons
